These results are taken from US11117866B2, “Terpineol and preparation method and application thereof” (priority 2016, dated 2021).

Read-outs that look alike come from different tables or passages of the source.

The subject of one experiment is Rat asthma model. The experiment can be described thus: Rat asthma model, nucleated (inflammatory) cell count in bronchi alveolar lavage fluid (BALF). The experiment is classed as in vivo. The note with it: BALF total nucleated cells, model group 182.50 ± 24.52, blank group 85.50 ± 18.70. The text has this: Rat asthma model was established, and proceeded with blunt dissection of trachea following the last feeding of drug for trachea alveolar washing. Bronchi alveolar lavage fluid (BALF) was collected, and total number of nucleated cells were counted.

A further experiment relates to Rat PAH model. The experiment can be described thus: Monocrotaline incurred pulmonary hypertension in rats, right ventricular systolic pressure. The experiment is classed as in vivo. The note with it: 200 mg/Kg daily, 30th day, right cardiac catheterization, x ± s, model group 43.78 ± 2.14, normal group 21.08 ± 2.13. Here is the method:
Method: Rat PAH model was established, and normal saline was fed to contrast group with volume equivalent to that for injection. Drug for interference was fed 2 days after radiography. 200 mg/Kg per compound was fed on daily basis. Normal saline was used with equivalent volume for lavage to the contrast group and model group respectively. Right ventricular systolic pressure of rat was measured by means of Right cardiac catheterization at anesthesia state on the 30th day.

For experiment [1], the system named is Isolated tracheal strip (trachea smooth muscle). Description: Isolated tracheal strip relaxation (diastolic rate) after acetylcholine chloride contraction. The note with it: read-out: Relaxation rate %. The procedure:
Method: Isolated tracheal strip was fabricated, and was placed in the in-vitro tracheal experiment device; 100 μL acetylcholine chloride was added following tension adjustment and balancing to make the trachea extract, and the tension of trachea was increased. Once the tension was increased to the maximum value, and became balanced, corresponding trial drug was fed to inhibit extraction of the trachea; isometric muscle tension variation curve was recorded, and diastolic rate of smooth muscle was calculated. Diastolic rate=(tension after radiography−tension after dosing)/(tension after radiography)*100%.

For a further experiment, the system named is tracheal smooth muscle. The note with it: guinea pig, cited from earlier work.
The next experiment relates to isolated atria. The note with it: guinea pig; cited from earlier work.
[2] abbreviates: 0.75 mmol/L, isolated tracheal strip contracted with acetylcholine chloride.
The mark [3] stands for this setting: 1.25 mmol/L, isolated tracheal strip contracted with acetylcholine chloride.

`CCCCCCCCCCCCCC(=O)OC(C)(C)C1CC=C(C)CC1` (stereo not drawn) [A]: the Inflammatory cell in the experiment with Rat asthma model is 139.50 ± 31.24^Δ × 10^8/L. In addition, the RVSP with Rat PAH model is given as 35.07 ± 2.81 mmHg. Further, the inhibition at 750 µM in experiment [1] (setting [2]) came to 17.6 ± 2.89%. Besides, the inhibition at 1250 µM in experiment [1] (setting [3]) was 16.6 ± 14.5%.
For the compound `Cn1c(=O)c2[nH]cnc2n(C)c1=O` [Aminophylline, reference compound], the inhibition at 750 µM in experiment [1] (setting [2]) was found to be 43.7 ± 10.2%. Further, in experiment [1] (setting [3]), the inhibition at 1250 µM amounted to 56.7 ± 9.26%.
Consider `CCCCCCCCCCCCCCCCCC(=O)OC(C)(C)C1CC=C(C)CC1` (stereo not drawn) [B], for which the Inflammatory cell in the experiment on Rat asthma model is 134.50 ± 25.27^Δ × 10^8/L. The same compound yielded an RVSP in the experiment with Rat PAH model of 36.08 ± 2.01 mmHg. The inhibition at 750 µM in experiment [1] (setting [2]) amounted to 15.4 ± 9.83%. For the same compound, the inhibition at 1250 µM in experiment [1] (setting [3]) worked out at 10.6 ± 13.8%.
Regarding `CC1=CCC(C(C)(C)OC(=O)CN(C)CCO)CC1` (stereo not drawn) [C], the Inflammatory cell with Rat asthma model was 77.50 ± 68.81 × 10^8/L. For the same compound, in the experiment with Rat PAH model, the RVSP was 22.33 ± 1.03^ΔΔ## mmHg. In experiment [1] (setting [2]), the inhibition at 750 µM was 50.2 ± 7.3%. Also, in experiment [1] (setting [3]), the inhibition at 1250 µM stood at 76.8 ± 7.7%.
For `CC1=CCC(C(C)(C)OC(=O)CN2CCOCC2)CC1` (stereo not drawn) [D], in that order: 110.5 ± 16.21 × 10^8/L, 32.04 ± 1.12^Δ mmHg, 36.6 ± 13.8% and 59.4 ± 14.7%.
Regarding `CC1=CCC(C(C)(C)OC(=O)CO[N+](=O)[O-])CC1` (stereo not drawn) [E], in the experiment on Rat asthma model, the Inflammatory cell is on record as 139.50 ± 20.71^Δ × 10^8/L. The compound also yielded an RVSP in the experiment with Rat PAH model of 35.53 ± 3.02 mmHg. Further, in experiment [1], the inhibition at 750 µM amounted to 17.1 ± 6.98% and the inhibition at 1250 µM came out at 10.8 ± 4.46%.
For `CCN(CC)CC(=O)OC(C)(C)C1CC=C(C)CC1` (stereo not drawn) [F], the Inflammatory cell with Rat asthma model is listed as 101.50 ± 14.68 × 10^8/L. Also, in the experiment on Rat PAH model, the RVSP is 23.35 ± 1.04^ΔΔ## mmHg. In addition, the inhibition at 750 µM in experiment [1] (setting [2]) was 42.3 ± 10.4%. Also, the inhibition at 1250 µM in experiment [1] (setting [3]) is 46.7 ± 3.56%.
In the case of `CC1=CCC(C(C)(C)OC(=O)CSCCO)CC1` (stereo not drawn) [G], the Inflammatory cell in the experiment on Rat asthma model is on record as 76.00 ± 18.15 × 10^8/L. In the experiment with Rat PAH model, the RVSP is 21.08 ± 1.31^ΔΔ# mmHg. Further, the inhibition at 750 µM in experiment [1] (setting [2]) stood at 48.3 ± 9.36%. Besides, the inhibition at 1250 µM in experiment [1] (setting [3]) stood at 81.1 ± 10.2%.
The corresponding values for `CC1=CCC(C(C)(C)OC(=O)CN2CCC(=O)CC2)CC1` (stereo not drawn) [H] are 123.00 ± 17.23 × 10^8/L, 30.33 ± 2.03^Δ mmHg, 20.9 ± 7.55% and 43.8 ± 10.2%.
For the compound `CC1=CCC(C(C)(C)OC(=O)CN2CCC(O)CC2)CC1` (stereo not drawn) [J], the Inflammatory cell in the experiment on Rat asthma model was 99.50 ± 21.23 × 10^8/L. In addition, in the experiment with Rat PAH model, the RVSP is reported as 27.06 ± 1.17^Δ mmHg. For the same compound, in experiment [1] (setting [2]), the inhibition at 750 µM turned out to be 35.2 ± 13.9%. In addition, the inhibition at 1250 µM in experiment [1] (setting [3]) came out at 71.5 ± 15.4%.
Consider `CC1=CCC(C(C)(C)OC(=O)CN2CCCCC2)CC1` (stereo not drawn) [L], for which, in the experiment on Rat asthma model, the Inflammatory cell is 110.50 ± 16.18 × 10^8/L. In addition, the RVSP in the experiment with Rat PAH model was 25.36 ± 1.17^ΔΔ# mmHg. Moreover, the inhibition at 750 µM in experiment [1] (setting [2]) was determined as 42.5 ± 6.14%. Moreover, the inhibition at 1250 µM in experiment [1] (setting [3]) came to 52.2 ± 6.98%.
Turning to `CC1=CCC(C(C)(C)OC(=O)CN(CCO)CCO)CC1` (stereo not drawn) [M], in the experiment with Rat asthma model, the Inflammatory cell was 97.50 ± 13.11 × 10^8/L. Further, the RVSP in the experiment with Rat PAH model is on record as 33.36 ± 2.05^Δ mmHg. The inhibition at 750 µM in experiment [1] (setting [2]) stood at 27.7 ± 2.08%. The inhibition at 1250 µM in experiment [1] (setting [3]) stood at 61 ± 5.07%.
For `CC1CCC(C(C)(C)O)CC1` (stereo not drawn) [N], in that order: 140.00 ± 26.21^Δ × 10^8/L, 32.56 ± 2.82^Δ mmHg, 27.2 ± 14.1% and 41.3 ± 13.2%.
For `CC1=CCC(C(C)(C)O)CC1` (stereo not drawn) [α-T, α,α,4-Trimethylcyclohex-3-en-1-methanol, reference compound], the Inflammatory cell with Rat asthma model is 113.00 ± 21.27 × 10^8/L. In addition, the “cAMP content in the tracheal smooth muscle” value in the experiment on tracheal smooth muscle is recorded as “increase cAMP content”. Besides, the air passage relaxation result in the experiment on tracheal smooth muscle (in vivo experiment and experiment in vitro) was “available for air passage relaxation”. For the same compound, the RVSP in the experiment with Rat PAH model was 33.03 ± 2.22^Δ mmHg. In addition, the “effect on isolated atria” value in the experiment with isolated atria is recorded as “inhibiting effect”. The inhibition at 750 µM in experiment [1] (setting [2]) came to 28.4 ± 16.1%. For the same compound, in experiment [1] (setting [3]), the inhibition at 1250 µM came to 38.4 ± 13.6%.
